What follows are compounds tested against T1, Cannabinoid-1 receptor (CB1R) (Rattus norvegicus, UniProt P20272) (assay: Cannabinoid-1 receptor (CB1R) binding affinity assay ([3H]CP-55940, rat CB-1 receptor binding protocol)). Conditions: IC50(nM), brain tissue of SD rats, [3H]CP-55940, 30° C. 60 min.
T1 construct: The tissue obtained from the brain of SD rats was homogenized; from tissue; host or cells: brain of SD rats (membrane pellet of the homogenate)
T1 sequence (P20272 whole entry): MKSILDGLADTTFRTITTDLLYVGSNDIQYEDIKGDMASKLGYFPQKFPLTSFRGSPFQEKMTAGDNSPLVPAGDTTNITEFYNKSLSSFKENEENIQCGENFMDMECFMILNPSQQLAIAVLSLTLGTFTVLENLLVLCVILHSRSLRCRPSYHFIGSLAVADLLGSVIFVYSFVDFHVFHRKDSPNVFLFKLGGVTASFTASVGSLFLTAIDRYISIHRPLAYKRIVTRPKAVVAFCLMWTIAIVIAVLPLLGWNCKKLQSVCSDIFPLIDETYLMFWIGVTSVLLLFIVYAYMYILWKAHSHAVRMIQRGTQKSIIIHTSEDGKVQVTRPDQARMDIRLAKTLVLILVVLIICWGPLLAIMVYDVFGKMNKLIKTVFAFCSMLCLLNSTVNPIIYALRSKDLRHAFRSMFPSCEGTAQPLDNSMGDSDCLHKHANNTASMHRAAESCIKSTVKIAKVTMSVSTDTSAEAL

| SMILES | IC50 [nM] |
| --- | --- |
| Cc1c(-c2nnc(C3CC=CC3)s2)nn(-c2ccc(Cl)cc2Cl)c1-c1ccc(Cl)cc1 [Example 384, 2-(5-(4-chlorophenyl)-1-(2,4-dichlorophenyl)-4-methyl-1H-pyrazol-3-yl)-5-(cyclopent-3-enyl)-1,3,4-thiadiazole] | 20.2 |

Same assay, conditions: brain tissue of SD rats, [3H]CP-55940, 30° C. 60 min; read-out: IC50

| IC50 [nM] | SMILES |
| --- | --- |
| 68.8 | CC(C)(C)c1nnc(-c2nn(-c3ccc(Cl)cc3Cl)c(-c3ccc(Cl)cc3)c2COC(=O)c2ccccc2)o1 [Example 198, (3-(5-tert-butyl-1,3,4-oxadiazol-2-yl)-5-(4-chlorophenyl)-1-(2,4-dichlorophenyl)-1H-pyrazol-4-yl)methyl benzoate] |
| 12.7 | Cc1c(-c2ncc(C(C)(C)C)s2)nn(-c2ccc(Cl)cc2Cl)c1-c1ccc(Cl)cc1 [Example 649, 5-tert-butyl-2-(5-(4-chlorophenyl)-1-(2,4-dichlorophenyl)-4-methyl-1H-pyrazol-3-yl)thiazole] |
| 2.07 | COc1ccc(C2(c3nnc(-c4nn(-c5ccc(Cl)cc5Cl)c(-c5ccc(Cl)cc5)c4Cn4cncn4)s3)CC2)cc1 [Example 509, 2-(4-((1H-1,2,4-triazol-1-yl)methyl)-5-(4-chlorophenyl)-1-(2,4-dichlorophenyl)-1H-pyrazol-3-yl)-5-(1-(4-methoxyphenyl)cyclopropyl)-1,3,4-thiadiazole] |
| 12.1 | FC(F)c1c(-c2nnc(C3(c4ccc(Cl)cc4)CC3)o2)nn(-c2ccc(Cl)cc2Cl)c1-c1ccc(Cl)cc1 [Example 225, 2-(5-(4-chlorophenyl)-1-(2,4-dichlorophenyl)-4-(difluoromethyl)-1H-pyrazol-3-yl)-5-(1-(4-chlorophenyl)cyclopropyl)-1,3,4-oxadiazole] |
| 12.5 | Cc1c(-c2nnc(C(C)(C)C)s2)nn(-c2ccc(Cl)cc2Cl)c1-c1ccc(Br)cc1 [Example 369, 2-(5-(4-Bromophenyl)-1-(2,4-dichlorophenyl)-4-methyl-1H-pyrazol-3-yl)-5-tert-butyl-1,3,4-thiadiazole] |
| 62.7 | COC(C)c1c(-c2nnc(C(C)(C)C)o2)nn(-c2ccc(Cl)cc2Cl)c1-c1ccc(Cl)cc1 (stereo not shown) [Example 226, 2-tert-butyl-5-(5-(4-chlorophenyl)-1-(2,4-dichlorophenyl)-4-(1-methoxyethyl)-1H-pyrazol-3-yl)-1,3,4-oxadiazole] |
| 11.3 | Cc1c(-c2nnc(C3(c4cccc(Cl)c4)CC3)o2)nn(-c2ccc(Cl)cc2Cl)c1-c1ccc(Cl)cc1 [Example 257, 2-(5-(4-chlorophenyl)-1-(2,4-dichlorophenyl)-4-methyl-1H-pyrazol-3-yl)-5-(1-(3-chlorophenyl)cyclopropyl)-1,3,4-oxadiazole] |
| 897 | CC(C)(C)c1nnc(-c2nn(-c3ccc(Cl)cc3Cl)c(-c3ccc(Cl)cc3)c2Cc2nnn[nH]2)o1 [Example 330, 2-(4-((1H-tetrazol-5-yl)methyl)-5-(4-chlorophenyl)-1-(2,4-dichlorophenyl)-1H-pyrazol-3-yl)-5-tert-butyl-1,3,4-oxadiazole] |
| 93.9 | CC(C)(C)c1nnc(-c2nn(-c3ccc(Cl)cc3Cl)c(-c3ccc(Cl)cc3)c2CN2CCCC2=O)o1 [Example 306, 1-((3-(5-tert-butyl-1,3,4-oxadiazol-2-yl)-5-(4-chlorophenyl)-1-(2,4-dichlorophenyl)-1H-pyrazol-4-yl)methyl)pyrrolidin-2-one] |
| 10.8 | CC(=O)c1c(-c2nnc(C3(c4ccc(Cl)cc4)CC3)o2)nn(-c2ccc(Cl)cc2Cl)c1-c1ccc(Cl)cc1 [Example 215, 1-(5-(4-chlorophenyl)-3-(5-(1-(4-chlorophenyl)cyclopropyl)-1,3,4-oxadiazol-2-yl)-1-(2,4-dichlorophenyl)-1H-pyrazol-4-yl)ethanone] |
| 15.5 | CCc1c(-c2nnc(C3(c4ccccc4)CCCC3)o2)nn(-c2ccc(Cl)cc2Cl)c1-c1ccc(Br)cc1 [Example 188, 2-(5-(4-bromophenyl)-1-(2,4-dichlorophenyl)-4-ethyl-1H-pyrazol-3-yl)-5-(1-phenylcyclopentyl)-1,3,4-oxadiazole] |
| 625 | Cc1c(-c2n[nH]c(C3CCCCCC3)n2)nn(-c2ccc(Cl)cc2Cl)c1-c1ccc(Cl)cc1 [Example 615, 3-(5-(4-chlorophenyl)-1-(2,4-dichlorophenyl)-4-methyl-1H-pyrazol-3-yl)-5-cycloheptyl-1H-1,2,4-triazole] |
| 12.1 | CCCc1c(-c2nnc(C3(c4ccc(Cl)cc4)CC3)o2)nn(-c2ccc(Cl)cc2Cl)c1-c1ccc(Cl)cc1 [Example 186, 2-(5-(4-chlorophenyl)-1-(2,4-dichlorophenyl)-4-propyl-1H-pyrazol-3-yl)-5-(1-(4-chlorophenyl)cyclopropyl)-1,3,4-oxadiazole] |
| 7.5 | Cc1c(-c2nnc(C3(c4ccc(Cl)cc4)CCC3)s2)nn(-c2ccc(Cl)cc2Cl)c1-c1ccc(Cl)cc1 [Example 431, 2-(5-(4-chlorophenyl)-1-(2,4-dichlorophenyl)-4-methyl-1H-pyrazol-3-yl)-5-(1-(4-chlorophenyl)cyclobutyl)-1,3,4-thiadiazole] |
| 6.23 | CCc1c(-c2nnc(C3(c4cccc(Cl)c4)CC3)s2)nn(-c2ccc(Cl)cc2Cl)c1-c1ccc(Br)cc1 [Example 495, 2-(5-(4-bromophenyl)-1-(2,4-dichlorophenyl)-4-ethyl-1H-pyrazol-3-yl)-5-(1-(3-chlorophenyl)cyclopropyl)-1,3,4-thiadiazole] |
| 7.64 | CC(C)(C)c1nnc(-c2nn(-c3ccc(Cl)cc3Cl)c(-c3ccc(Cl)cc3)c2Cn2cnnn2)o1 [Example 301, 2-(4-((1H-tetrazol-1-yl)methyl)-5-(4-chlorophenyl)-1-(2,4-dichlorophenyl)-1H-pyrazol-3-yl)-5-tert-butyl-1,3,4-oxadiazole] |
| 36.5 | Cc1c(-c2nnc(C3(C(F)(F)F)CC3)s2)nn(-c2ccc(Cl)cc2Cl)c1-c1ccc(Cl)cc1 [Example 462, 2-(5-(4-chlorophenyl)-1-(2,4-dichlorophenyl)-4-methyl-1H-pyrazol-3-yl)-5-(1-(trifluoromethyl)cyclopropyl)-1,3,4-thiadiazole] |
| 7.53 | Cc1c(-c2nnc(C3(c4ccc(Cl)cc4)CC3)s2)nn(-c2ccccc2Cl)c1-c1ccc(Cl)cc1 [Example 433, 2-(1-(2-chlorophenyl)-5-(4-chlorophenyl)-4-methyl-1H-pyrazol-3-yl)-5-(1-(4-chlorophenyl)cyclopropyl)-1,3,4-thiadiazole] |
| 10.7 | CCC(C)c1nnc(-c2nn(-c3ccc(Cl)cc3Cl)c(-c3ccc(Br)cc3)c2C)s1 (stereo not shown) [Example 403, 2-(5-(4-bromophenyl)-1-(2,4-dichlorophenyl)-4-methyl-1H-pyrazol-3-yl)-5-sec-butyl-1,3,4-thiadiazole] |
| 263 | CCC(C)(C)c1nnc(-c2nn(-c3ccc(Cl)cc3Cl)c(-c3cccc(Cl)c3)c2C)s1 [Example 439, 2-(5-(3-Chlorophenyl)-1-(2,4-dichlorophenyl)-4-methyl-1H-pyrazol-3-yl)-5-tert-pentyl-1,3,4-thiadiazole] |
| 6.9 | Cc1c(-c2nnc(C(C)(C)c3ccccc3)s2)nn(-c2ccc(Cl)cc2Cl)c1-c1ccc(Cl)cc1 [Example 401, 2-(5-(4-chlorophenyl)-1-(2,4-dichlorophenyl)-4-methyl-1H-pyrazol-3-yl)-5-(2-phenylpropan-2-yl)-1,3,4-thiadiazole] |
| 19.5 | Cc1c(-c2nnc(C(C)(C)C3CCCC3)s2)nn(-c2ccc(Cl)cc2Cl)c1-c1ccc(Cl)cc1 [Example 393, 2-(5-(4-chlorophenyl)-1-(2,4-dichlorophenyl)-4-methyl-1H-pyrazol-3-yl)-5-(2-cyclopentylpropan-2-yl)-1,3,4-thiadiazole] |
| 24.4 | CC(C)(C)c1nnc(-c2nn(-c3ccc(Cl)cc3Cl)c(-c3ccc(Cl)cc3)c2COc2ccccn2)o1 [Example 234, 2-tert-butyl-5-(5-(4-chlorophenyl)-1-(2,4-dichlorophenyl)-4-((pyridin-2-yloxy)methyl)-1H-pyrazol-3-yl)-1,3,4-oxadiazole] |
| 573 | Cc1c(-c2nc(C3CC3)n(C(C)C)n2)nn(-c2ccc(Cl)cc2Cl)c1-c1ccc(Cl)cc1 [Example 630, 3-(5-(4-chlorophenyl)-1-(2,4-dichlorophenyl)-4-methyl-1H-pyrazol-3-yl)-5-cyclopropyl-1-isopropyl-1H-1,2,4-triazole] |
| 1.73 | FC(F)(F)C1(c2nnc(-c3nn(-c4ccc(Cl)cc4Cl)c(-c4ccc(Cl)cc4)c3Cn3cncn3)o2)CCC1 [Example 321, 2-(4-((1H-1,2,4-triazol-1-yl)methyl)-5-(4-chlorophenyl)-1-(2,4-dichlorophenyl)-1H-pyrazol-3-yl)-5-(1-(trifluoromethyl)cyclobutyl)-1,3,4-oxadiazole] |
| 9.94 | CCc1c(-c2nnc(C3CCCC3)s2)nn(-c2ccc(Cl)cc2Cl)c1-c1ccc(Cl)cc1 [Example 396, 2-(5-(4-chlorophenyl)-1-(2,4-dichlorophenyl)-4-ethyl-1H-pyrazol-3-yl)-5-cyclopentyl-1,3,4-thiadiazole] |
| 27.4 | CCCCC(C)(C)c1nnc(-c2nn(-c3ccc(Cl)cc3Cl)c(-c3ccc(Cl)cc3)c2C)s1 [Example 406, 2-(5-(4-chlorophenyl)-1-(2,4-dichlorophenyl)-4-methyl-1H-pyrazol-3-yl)-5-(2-methylhexan-2-yl)-1,3,4-thiadiazole] |
| 20.5 | CC(C)(C)c1nnc(-c2nn(-c3ccc(Cl)cc3Cl)c(-c3ccc(Cl)cc3)c2Cn2cccn2)o1 [Example 298, 2-(4-((1H-pyrazol-1-yl)methyl)-5-(4-chlorophenyl)-1-(2,4-dichlorophenyl)-1H-pyrazol-3-yl)-5-tert-butyl-1,3,4-oxadiazole] |
| 18.7 | CC(C)(C)c1nnc(-c2nn(-c3ccc(Cl)cc3Cl)c(-c3ccc(Cl)cc3)c2Cn2ccnc2)o1 [Example 297, 2-(4-((1H-imidazol-1-yl)methyl)-5-(4-chlorophenyl)-1-(2,4-dichlorophenyl)-1H-pyrazol-3-yl)-5-tert-butyl-1,3,4-oxadiazole] |
| 5.62 | CCc1c(-c2nnc(C3(c4ccc(OC)cc4)CC3)o2)nn(-c2ccc(Cl)cc2Cl)c1-c1ccc(Cl)cc1 [Example 152, 2-(5-(4-chlorophenyl)-1-(2,4-dichlorophenyl)-4-ethyl-1H-pyrazol-3-yl)-5-(1-(4-methoxyphenyl)cyclopropyl)-1,3,4-oxadiazole] |

From patent US7875647B2, “Heteroaryl-pyrazole derivatives as cannabinoid CB1 receptor antagonists” (Green Cross Corporation, priority 2006, dated 2011)
